In patent publication US6541468B1, “Indolocarbazole derivatives useful for the treatment of neurodegenerative diseases and cancer” (Bayer Corporation, priority 1998, dated 2003):
Where two headings read alike, the source gives them in different places.

Legend:
[1] = target: T1, cdc2 kinase (Homo sapiens, UniProt P06493); test: cdc2 kinase inhibition assay; assay type: biochemical; settings: 0.25 mM ATP, human recombinant tau substrate
T1 construct: Human cdc2 kinase was prepared from nocodazole-arrested HeLa cells; endogenous in cells; host or cells: nocodazole-arrested HeLa cells
Protocol: Preparation of cdc2 Kinase: Human cdc2 kinase was prepared from nocodazole-arrested HeLa cells according to Marshak D. M. er al., J. Cell Biochem., 45, 391-400 (1991).
cdc2 kinase was assayed in 50 μl 25 mM HEPES, pH 7.0, 1 mM Mg^2+, 0.25 mM ATP (150-300 cpm/pmole), 1 mM DTT, using 0.5 ng cdc2 kinase, 5 μg human recombinant tau as substrate, and 0.1 mg/mL BSA a as carrier.
Enzyme, substrate and inhibitor were preincubated for 5-10 min at 4° C. in assay buffers containing a final concentration of 2% DMSO before initiating the reaction with 0.25 mM γ^2P-ATP. Samples were incubated for 30 min at 37° C. and reactions were terminated with 10% trichloracetic acid/2% sodium pyrophosphate (TCA/PPA), followed by filtration over a glass fiber filtermat (type A) with a cell harvester (Tomtec). The filtermats were washed twice for several hours with TCA/PPA until all background radioactivity was removed. Precipitable counts were quantitated directly on the filtermat with a microbeta scintillation counter system (Wallac-Pharmacia). Inhibitor data were subjected to curve fitting and IC50 values were calculated from these curves using the GraphIt program.

[2] = tested on: tau hyperphosphorylation; test: Okadaic acid induced AD-like tau hyperphosphorylation in SY5Y cells; assay type: cell-based, human; settings: for IC50: Homo sapiens
Protocol: SKNSH-SY 5Y cells were plated on fibronectin-coated 6 well (30 mm^2) culture dishes (Biocoat®, Collaborative Biomedical Products, Inc.) and grown to confluence in 5 mL of 50% D-MEM/50% F-12 Nutrient Mixture (Ham) supplemented with 15% heat-inactivated bovine serum (JRH Bioscience), 0.1 mM non-essential amino acids solution, 2 mM glutamine and pen/strep/fungizone (GibcoBRL Life Technologies, Inc.). Cell culture medium was changed every 48 hours.
For drug testing, cells were routinely pretreated with inhibitors in 1 mL (30 mm2) for 60 min at concentrations of 30 nM, 100 nM, 300 nM, […]. Compound stocks were all at 10 mM in DMSO and dilutions were made in DMSO. Cells were then treated with 1 μM okadaic acid (ammonium salt; LC Laboratories, dissolved at 1 mM in DMSO) for 90 min. All experiments, including controls, contained a final concentration of between 0.5 and 1% DMSO.
Cells were detached from 30 mm^2 plates and suspended into 1 mL of ice-cold PBS by gentle trituration, transferred into microcentrifuge tubes and sedimented for 12 seconds at 14,000×g. The supernatant was removed and cells were lysed in 250 μl cold homogenization buffer (50 mM MES, pH 5.8, 5 mM sodium pyrophosphate, 50 mM p-nitrophenylphosphate, 1 μM okadaic acid, 2 mM Na-orthovandate, 1 mM EDTA, 1 mM EGTA, 1 mM DTT, 10^ glycerol, 10 μM leupeptin, 1 μM pepstatin, 1 mg/mL aprotinin, 10 μM chymostatin, 1 mM PMSF, and 1% TRITON® x100) and vortexed briefly to aid in lysis. Cell debris was removed by centrifugation at 14,000×g for 5 minutes at 4° C. and cell supernatants were analyzed by anti-ERK2 and anti-tau Western-blotting as described below.
[…] of total cell lysate was run on a 10% tris-glycine polyacrylamide gels (Novex, 1.5 mm×10 well) at 100 volts for 2.5 hors and Western-blotted on nitrocellulose (Novex) overnight at 23 volts or 1.5 hrs at 100V in transfer buffer [Towbin et al. Proc. Natl. Acad. Sci. USA 76, 4350-4354 (1979]) at 4° C. Blots were analyzed for ERK2 and phosphotyrosine immunoreactivity with anti-ERK1+2 (Z033; Zymed Laboratories, Inc.; 1:5,000) and anti-phosphotyrosine (4G10; Upstate Biotechnology Inc.; 1:1,000) mAbs. Blots were also analyzed for phosphorylation-sensitive Tau immuno-reactivity with mAb Tau-1 (Boehringer Mannheim; 1:5,000) and phosphorylation dependent mAb AT8 against FHF-tau (Biosource International; 1:200). Total Tau populations were detected by Tau-1 immunoblotting after treating blots for 16 hrs at 37° C. with 100 units/mL alkaline phosphatase (Gibco BRL) in 5 mL of 50 mM Tris-HCI (pH 8.5), 0.1 mM EDTA. All blots were developed using ECL (enhanced chemiluminescence) Western blotting protocol (Amersham Life Science) with horseradish peroxidase-linked sheep anti-mouse secondary antibody and analyzed on Kodak X-OMAT AR scientific imaging film. Films were scanned into Adobe Photoshop and imported into NIH Image 1.44, where densitometric analysis was performed. Changes in tau phosphorylation were assessed by normalizing densitometrically determined mAb Tau-1 immunoreactivities in cell extracts to Tau-1 reaction after dephosphorylation on the blot. Ratios of Tau-1 reactivity prior to and after dephosphorylation were expressed in % relative to the ratio obtained from control cells not treated with okadaic acid (100%). Proteins isolated form neonatal rat brain were used for comparison in some experiments.
Correlation of potencies of inhibition of PK40 activity in vitro, and of OA-induced ERK2 and tau phosphorylation in SY5Y cells. ERK2 phosphorylation was quantified as the ratio of low mobility/total ERK2, densitometrically determined from ERK2 Western-blots (e.g. of FIG. 1). Tau hyperphosphorylation was expressed as densitometrically measured Tau-1 immunoreactivity normalized to total Tau-1 reactivity after unmasking of the epitope by phosphatase treatment of the blots.
Prevention of tau hyperphosphorylation by the preferred compound CIII (FIG. 1). […]

[3] = SY5Y, 1 μM okadaic acid, means of triplicate determinations, read-out: Inhibition in SY5Y cells of tau hyperphos. IC50

T1 sequence (P06493 whole entry): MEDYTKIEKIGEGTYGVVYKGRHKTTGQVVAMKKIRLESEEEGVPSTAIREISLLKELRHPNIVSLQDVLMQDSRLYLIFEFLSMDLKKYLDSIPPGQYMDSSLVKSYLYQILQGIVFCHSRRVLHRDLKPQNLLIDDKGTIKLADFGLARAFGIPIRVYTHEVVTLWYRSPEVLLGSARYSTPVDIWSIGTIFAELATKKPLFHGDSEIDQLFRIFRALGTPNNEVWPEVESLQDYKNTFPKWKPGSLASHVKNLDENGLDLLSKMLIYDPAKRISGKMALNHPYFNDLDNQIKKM
T1 sequence (P14635 whole entry partner): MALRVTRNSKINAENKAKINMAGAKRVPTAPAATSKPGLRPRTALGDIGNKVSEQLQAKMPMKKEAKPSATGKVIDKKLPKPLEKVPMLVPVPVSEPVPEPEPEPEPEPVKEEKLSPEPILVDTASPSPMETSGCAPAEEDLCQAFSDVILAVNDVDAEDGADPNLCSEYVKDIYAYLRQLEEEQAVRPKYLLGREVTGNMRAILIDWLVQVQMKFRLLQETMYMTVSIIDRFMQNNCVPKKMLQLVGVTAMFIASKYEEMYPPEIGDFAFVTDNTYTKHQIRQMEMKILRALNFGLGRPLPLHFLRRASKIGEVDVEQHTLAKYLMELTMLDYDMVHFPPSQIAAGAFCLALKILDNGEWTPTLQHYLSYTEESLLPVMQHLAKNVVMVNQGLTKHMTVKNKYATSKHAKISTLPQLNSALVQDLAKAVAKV

| Structure (SMILES) | IC50 [1] | IC50 [2, 3] | IC50 ([2]; SY5Y cells, okadaic acid, read-out: IC50 for prevention of tau hyperphosphorylation in SY5Y cells) | Effect on normal tau phosphorylation ([2]; SY5Y cells not treated by okadaic acid) | Fully effective doses for prevention of tau hyperphosphorylation ([2]; SY5Y cells, 1 μM okadaic acid) | Prevention of okadaic acid induced tau hyperphosphorylation (FIG. 1) ([2]; SY5Y cells, 1 μM okadaic acid, Tau-1 Western blot) |
| --- | --- | --- | --- | --- | --- | --- |
| CNC(=O)[C@]1(O)CC2CC1n1c3ccccc3c3c4c(c5c6ccccc6n2c5c31)C(=O)NC4=O (stereo partly drawn) [CII, 9,12-Methano-1H-diindolo[1,2,3-fg:3′,2′,1′-kl]pyrrolo[3,4-I][1,6] benzodiazocine-10-carboxamide, 2,3,9,10,11,12-hexahydro-10-hydroxy-N-methyl-1,3-dioxo-(9α,10β,12α)] | 44 nM | 580 nM | 100 nM | – | – | – |
| COC(=O)[C@@]1(O)C[C@H]2C[C@@H]1n1c3ccccc3c3c4c(c5c6ccccc6n2c5c31)C(=O)NC4=O (relative stereo) [CIII, 9,12-Methano-1H-diindolo[1,2,3-fg:3′,2′,1′-kl]pyrrolo[3,4-I][1,6] benzodiazocine-10-carboxylic acid, 2,3,9,10,11,12-hexahydro-10-hydroxy-1,3-dioxomethyl ester, (9α,10β,12α)] | 3800 nM | 3600 nM | – | apparently not affected | > 1 µM | prevents the tau hyperphosphorylation in a dose dependent manner |
